Measurements reported in article PMC9369295, “Key Residues Affecting Binding Affinity of Sirex noctilio Fabricius Odorant-Binding Protein (SnocOBP9) to Aggregation Pheromone” (International Journal of Molecular Sciences, 2022).
“Also recorded” adds a separate entry of the source. Where two headings read alike, the source gives them in different places.

Tests used:
[1] = biological target: SnocOBP9WT (Sirex noctilio, UniProt A0A857N3E7); experiment: Fluorescence competitive binding assay with 1-NPN probe, wild-type protein
[2] = biological target: SnocOBP9M54A (Sirex noctilio, UniProt A0A857N3E7, M75A); experiment: Fluorescence binding assay with 1-NPN probe, mutant M54A
Description: (§1) To measure the binding affinity of the ligand to recombinant SnocOBP9, 1-NPN was selected as a fluorescent probe. Eleven host volatiles ((−)-Limonene, (+)-Limonene, 3-Carene, Alpha-Pinene and Beta-Pinene, Camphene, Beta-Myrcene, Beta-Ocimene, Sabinene, Hexanal and Eucalyptol), three insect pheromones ((Z)-3-Decen-ol, (Z)-4-Decen-ol and (E, E)-2,4-decadienal) and six symbiotic fungal volatile (Cyclopentanone, Geraniol 2-Hexene, (−)-Globulol, Linalol and 1-(3-ethylphenyl)ethenone) compounds were selected to bind with recombinant SnocOBP9. A multi-scan Spectrum Molecular Device Spectra Max i3 Fluorescence Spectrophotometer (Thermo Scientific, Wilmington, DE, USA) was used to conduct fluorescence competitive binding assays with an excitation wavelength of 337 nm. The emission spectra were recorded between 390 and 500 nm. The parameters were selected such that the slit widths for both excitation and emission were 10 nm. […] Intensity values corresponding to the maximum fluorescence emission were plotted against the free ligand concentrations to calculate the dissociation constant. Assuming the activity of the protein was 100%, and the stoichiometric ratio between the protein and the ligand was 1:1 when saturated, the bound ligand was determined from the fluorescence intensity value. The K1-NPN value was calculated by linearizing the curve using Scatchard plots. […]

[3] = biological target: SnocOBP9F57A (Sirex noctilio, UniProt A0A857N3E7, F78A); experiment: Fluorescence binding assay with 1-NPN probe, mutant F57A
Description: as §1

[4] = biological target: SnocOBP9F71A (Sirex noctilio, UniProt A0A857N3E7, F92A); experiment: Fluorescence binding assay with 1-NPN probe, mutant F71A
Description: as §1

[5] = biological target: SnocOBP9F74A (Sirex noctilio, UniProt A0A857N3E7, F95A); experiment: Fluorescence binding assay with 1-NPN probe, mutant F74A
Description: as §1

[6] = biological target: SnocOBP9L116A (Sirex noctilio, UniProt A0A857N3E7, L137A); experiment: Fluorescence binding assay with 1-NPN probe, mutant L116A
Description: as §1

[7] = protein and 1-NPN both 2 μM, ligand titrated to 1–20 μM, read-out: IC50

SnocOBP9M54A, sequence (A0A857N3E7 entry or part of it M75A): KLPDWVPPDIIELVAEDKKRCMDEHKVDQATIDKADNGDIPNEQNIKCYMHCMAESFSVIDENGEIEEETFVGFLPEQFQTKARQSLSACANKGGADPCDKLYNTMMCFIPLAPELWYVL
SnocOBP9L116A, sequence (A0A857N3E7 entry or part of it L137A): as the sequence (A0A857N3E7 entry or part of it M75A) above, with A54M, L116A counted along it
SnocOBP9WT, sequence (A0A857N3E7 entry or part of it): as the sequence (A0A857N3E7 entry or part of it M75A) above, with A54M counted along it
SnocOBP9F74A, sequence (A0A857N3E7 entry or part of it F95A): as the sequence (A0A857N3E7 entry or part of it M75A) above, with A54M, F74A counted along it
SnocOBP9F71A, sequence (A0A857N3E7 entry or part of it F92A): as the sequence (A0A857N3E7 entry or part of it M75A) above, with A54M, F71A counted along it
SnocOBP9F57A, sequence (A0A857N3E7 entry or part of it F78A): as the sequence (A0A857N3E7 entry or part of it M75A) above, with A54M, F57A counted along it

| SMILES | IC50 [1, 7] [µM] | IC50 [1] [µM] | also measured |
| --- | --- | --- | --- |
| c1ccc(Nc2cccc3ccccc23)cc1 [1-NPN, N-phenyl-1-naphthylamine, reference compound] |  |  | Kd [1]: 6.87 ± 0.73 µM; Kd [2]: 7.61 ± 0.92 µM; Kd [3]: 4.49 ± 0.82 µM; Kd [4]: 1.27 ± 2.42 µM; Kd [5]: 18.4 ± 1.66 µM; Kd [6]: 17.5 ± 2.41 µM |
| CC=CCCC [2-Hexene] | > 20 |  |  |
| C=C(C)[C@H]1CC=C(C)CC1 [(+)-Limonene] |  | 6.09 ± 1.43 | Ki [1]: 4.87 ± 0.94 µM |
| CCCCC/C=C/C=C/C=O [(E, E)-2,4-Decadienal] | > 20 |  |  |
| CCCCC/C=C\CCCO [(Z)-4-Decen-ol] | > 20 |  |  |
| C=C(C)[C@@H]1CC=C(C)CC1 [(−)-Limonene] |  | 6.95 ± 0.61 | Ki [1]: 5.5 ± 0.49 µM |
| CC1=CCC2CC1C2(C)C (stereo not drawn) [Alpha-Pinene] |  | > 20 |  |
| C=CC(=C)CCC=C(C)C [Beta-Myrcene] | > 20 |  |  |
| C=C1CCC2CC1C2(C)C (stereo not drawn) [Beta-Pinene] |  | > 20 |  |
| CC(C)=CCC/C(C)=C/CO [Geraniol] |  | > 20 |  |
| CCCCCC=O [Hexanal] |  | > 20 |  |
| C=CC(C)(O)CCC=C(C)C (stereo not shown) [Linalool] |  | > 20 |  |
| CCCCCC/C=C\CCO [Z3D, (Z)-3-decen-ol] | 1.92 ± 0.14 |  | Ki ([1]; protein and 1-NPN both 2 μM, ligand titrated to 1–20 μM, read-out: Ki): 1.53 ± 0.09 µM; binding affinity (fluorescence competitive assay) ([2]; mutant MET54 to ALA, Ki could not be calculated): no binding affinity; also recorded: never decreased below 50%; Ki [3]: 5.61 ± 0.5 µM; binding affinity (fluorescence competitive assay) ([4]; mutant PHE71 to ALA, Ki could not be calculated): no binding affinity; also recorded: never decreased below 50%; binding affinity (fluorescence competitive assay) ([5]; mutant PHE74 to ALA, Ki could not be calculated): no binding affinity; also recorded: never decreased below 50%; binding affinity (fluorescence competitive assay) ([6]; mutant LEU116 to ALA, Ki could not be calculated): no binding affinity; also recorded: never decreased below 50% |

Further lines, with some results ahead:

| IC50 [1, 7] [µM] | SMILES | IC50 [1] [µM] | also measured |
| --- | --- | --- | --- |
| > 20 | CCc1cccc(C(C)=O)c1 [1-(3-ethylphenyl)ethenone] |  |  |
| > 20 | CC1=CCC2C(C1)C2(C)C (stereo not shown) [3-Carene] |  |  |
| > 20 | C[C@@H]1CC[C@@H]2[C@@H]1[C@H]1[C@@H](CC[C@@]2(C)O)C1(C)C [(−)-Globulol] |  |  |
| > 20 | C=C/C(C)=C/CC=C(C)C [Beta-Ocimene] |  |  |
| > 20 | C=C1C2CCC(C2)C1(C)C (stereo not shown) [Camphene] |  |  |
| > 20 | O=C1CCCC1 [Cyclopentanone] |  |  |
| > 20 | CC12CCC(CC1)C(C)(C)O2 [Eucalyptol] |  |  |
| > 20 | C=C1CCC2(C(C)C)CC12 (stereo not shown) [Sabinene] |  |  |
